Paper PMC10017042 (Science Advances, 2023)
Values joined by “and” are separate entries in the source; they are usually repeats but may differ in a detail not shown here. Equal entries are not always repeated. Where two headings read alike, the source gives them in different places.

Key:
[1] = Plasma drug concentrations (pyrimethamine UPLC-MS/MS, VPA assay, unbound dolutegravir) in trial participants; assay type: in vivo, human; settings: for PLWH with VPA plasma levels exceeding the therapeutic window (up to 100 mg/liter): day 7; for concentration at 6 h / concentration at 14 day: human, plasma, oral; for concentration at 6 h: read-out: Median plasma total VPA concentration; for concentration at 14 day: day 14, read-out: Median VPA Ctrough
Procedure: Self-reported adherence was assessed at each study visit, and empty pill strips were collected after the 2-week intervention phase. […] A gradient (0.3 ml/min) with two eluents was used (A: 2 mM ammonium acetate + 0.1% formic acid in water; B: 2 mM ammonium acetate + 0.1% formic acid in methanol). […] For measurement validation, we performed linearity, correctness, LOD and lower LOQ, repeatability, reproducibility, measurement uncertainty, robustness, and carryover. […] Unbound dolutegravir plasma concentrations were quantified with a validated UPLC-MS/MS bioquantification method as previously described ([61]).

[2] = tested on: BAF complex; experiment: BAF complex target gene expression (IL-10, SOCS3, CBX7; control B-ACT) by RT-qPCR in participants; assay type: in vivo, human; settings: day 0, 6 hours after first dose relative to pretreatment
Text: We reasoned that the effect on the expression of these gene targets at later time points (days 14 and 42) would be less useful as specific biomarker of BAF complex inhibition due to treatment interruptions and potential induction via other pathways. […] These findings are consistent with, and might be the consequence of, the generally lower plasma pyrimethamine Ctrough in participants that received the combined intervention regimen compared to those that received solely pyrimethamine.
RT-qPCR reactions were conducted using GoTaq qPCR Master Mix (Promega) following the manufacturer’s protocol. The following thermal cycling protocol was used for amplification: 3 min at 95°C, followed by 40 cycles of 95°C for 10 s and 60°C for 30 s. Expression data were calculated using the 2^−∆∆Ct methodology ([73]). Cyclophilin A was used as a housekeeping gene for the analysis. The list of primers is available in table S9.

[3] = tested on: HIV-1
Procedure: Here, the measurement from the cells obtained >1 year after the last visit was used.
The frequency of CD4^+ T cells expressing MS HIV-1 RNA was determined using TILDA with some modifications to the protocol described previously by our group ([68]). Briefly, total CD4^+ T cells were isolated from PBMCs by negative magnetic selection using EasySep CD4^+ Human CD4^+ T Cell Enrichment kit ([…] Technologies). Following isolation, 1.5 × 10^6 CD4^+ T cells/ml were rested in complete RPMI 1640 for 5 to 8 hours before 12 hours of stimulation with PMA (100 ng/ml) and ionomycin (1 μg/ml) (both from Sigma-Aldrich). After stimulation, CD4^+ T cells were washed and resuspended in serum-free RPMI 1640. Cells were counted and serially diluted accordingly: 1.8 × 10^6 cells/ml, 9 × 10^5 cells/ml, 3 × 10^5 cells/ml, and 1 × 10^5 cells/m. […] In the preamplification reaction, 10 μl of the cell suspension from each dilution was dispensed into 24 to 48 wells of a 96-well plate containing 2 μl of one-step RT-PCR enzyme (Qiagen), 10 μl of 5× one-step RT-PCR buffer (Qiagen), 10 μl of Triton X-100 (0.3%), 0.25 μl of RNAsin (40 U/μl), 2 μl of dNTPs (10 mM each), 1 μl of tat1.4 forward primer (20 μM) and rev reverse primer (20 μM) (as published), and nuclease-free water to a final reaction volume of 50 μl. The one-step RT-PCR was run using the following thermocycling conditions: 50°C for 30 min, 95°C for 15 min, followed by 25 cycles of 95°C for 1 min, 55°C for 1 min, and 72°C for 2 min, and a final extension at 72°C for 5 min. After preamplification, 2 μl of the products was used as input for the real-time PCR to detect tat/rev MS HIV-1 RNA in a final reaction volume of 20 μl, which consisted of 5 μl of 4× TaqMan Fast Advanced Master mix (Thermo Fisher Scientific), 0.4 μl of tat2.0 forward primer, rev reverse primer (each at 20 μM), and MS tat/rev probe (5 μM). The real-time PCR was performed using the following program: 50°C for 5 min, 95°C for 20 s, followed by 45 cycles of 95°C for 3 s and 60°C for 30 s. Positive wells at each dilution were recorded and used to determine the frequency of cells expressing tat/rev MS HIV-1 RNA by the maximum likelihood method.

[4] = Clinical safety: adverse events (CTCAE version 4.0) and treatment adjustments; assay type: in vivo, human; settings: 14-day intervention; seven participants per arm
Procedure: Hematological parameters and kidney and liver function were monitored before treatment and on days 7, 14, and 42. At each study visit, participants were clinically assessed by the study physician and safety assessments were performed. All participant-reported AE and SAE were evaluated in relation to VPA and pyrimethamine. Severity was graded according to the Common Terminology Criteria for Adverse Events (CTCAE) version 4.0. In the study protocol, a number of stopping rules were defined including a prespecified interim analysis after the inclusion of 14 participants focusing on the number of participants discontinuing study medication during the intervention phase, CD4^+ T cell count <200 cells/μl, possibly drug-related SAE/AE ≥ grade 4, or AIDS-related illness (Centers for Disease Control category C events).

[5] = tested on: HIV-1; remark: listed apart in the source
Text: To achieve a constant and the earliest Tmax possible, participants received their first dose of the intervention regimen on day 0 in a fasted state. On day 0, cART and study medication intake were taken under direct supervision of the study staff. The 2-week intervention phase was followed by a 4-week post-intervention phase. Overall, participation involved 11 study visits. To obtain an additional post-intervention phase measurement for the inducible HIV-1 reservoir size, the study was amended and participants were asked to give written consent to an extra blood draw after the 4-week post-intervention phase ended. Plasma HIV-1 RNA levels (COBAS TaqMan; Roche, Basel, Switzerland; LOQ, 20 copies/ml) were monitored at all 11 visits. CD4^+ T cell counts were determined at screening, at the start and end of the intervention phase (days 0 and 14), at day 42, and at the post-intervention phase (≥day 42).

[6] = design: method as in PMID 22837004; settings: assumed for the sampling design; fasted first dose; cited from earlier work
[7] = individual participants, one value each, /N, /P suffix not kept
[8] = individual participants, one value each, /N, /P suffix not kept, listed as VPA

Compound: CCCC(CCC)C(=O)O [valproic acid]
- PLWH with VPA plasma levels exceeding the therapeutic window (up to 100 mg/liter) ([1]; those who continued VPA): three of nine
- PLWH with VPA plasma levels exceeding the therapeutic window (up to 100 mg/liter) ([1]; those whose therapy was adjusted for toxicity while receiving VPA): three of the five
- Drug detectable in plasma ([1]; day 42 (28 days after end of treatment)): No pyrimethamine or VPA was detectable
- concentration at 6 h ([1]; 30 mg/kg per day (divided into two equal doses), VPA monotherapy): 47.3 µg/mL
- concentration at 14 day ([1]; 30 mg/kg per day, VPA monotherapy, six PLWH with uninterrupted exposure): 84.8 µg/mL
- concentration at 6 h ([1]; combination treatment with pyrimethamine): 47.4 µg/mL
- concentration at 14 day ([1]; combination treatment, four PLWH with uninterrupted exposure): 113 µg/mL
- mRNA levels of BAF target genes (IL-10, SOCS3, CBX7) [2]: no increase
- Change in inducible reservoir size ([3]; day 0 versus day 42): remained stable
- TILDA reservoir, cells with multiply spliced HIV-RNA detectable per million CD4+ T-cells, >1year ([3]; individual participants, one value each, >1 year after end of treatment, listed as VPA): 2.5 per million CD4+ T-cells and 25.5 per million CD4+ T-cells and 286.2 per million CD4+ T-cells and 2.2 per million CD4+ T-cells and 19.0 per million CD4+ T-cells
- TILDA reservoir, cells with multiply spliced HIV-RNA detectable per million CD4+ T-cells, Day 42 ([3]; individual participants, one value each, listed as VPA): 26.0 per million CD4+ T-cells and 12.7 per million CD4+ T-cells and 1.2 per million CD4+ T-cells and 12.9 per million CD4+ T-cells
- TILDA reservoir, cells with multiply spliced HIV-RNA detectable per million CD4+ T-cells, Day 0, 0 hour ([3]; individual participants, one value each, pretreatment baseline, listed as VPA): 12.5 per million CD4+ T-cells and 100.7 per million CD4+ T-cells and 326.5 per million CD4+ T-cells and 2.5 per million CD4+ T-cells and 17.1 per million CD4+ T-cells and 3.4 per million CD4+ T-cells
- Participants who stopped treatment [4]: one
- Plasma HIV-1 RNA in the participants not remaining below LOQ ([5]; entire 6-week trial period, two on VPA, one on pyrimethamine, one on combination): < 50 copies/ml
- Plasma HIV-1 RNA, Day 0, 6hr [5, 7]: < 20
- Plasma HIV-1 RNA, Day 7 [5, 7]: < 20
- Plasma HIV-1 RNA, Day 10 [5, 7]: < 20
- Plasma HIV-1 RNA, Day 14 [5, 7]: < 20
- Plasma HIV-1 RNA, Day 15 [5, 7]: < 20
- Plasma HIV-1 RNA, Day 28 [5, 7]: < 20
- Plasma HIV-1 RNA, Day 42 [5, 7]: < 20
- Plasma HIV-1 RNA, Day 1 [5, 8]: < 20 (6×) and 41
- Plasma HIV-1 RNA, Day 21 [5, 8]: < 20 (6×) and 21
- Plasma HIV-1 RNA, Day 0, 0hr ([5]; individual participants, one value each, pretreatment, /N, /P suffix (genome not detected / detected below quantitation) not kept): < 20
- Tmax [6]: approximately 4 hours
